Measurements reported in PMC8781450, “Isoquinoline Alkaloids as Protein Tyrosine Phosphatase Inhibitors from a Deep-Sea-Derived Fungus Aspergillus puniceus” (Marine Drugs, 2022).
≈ marks a conversion by molar mass, not a printed value. Read-outs that look alike come from different tables or passages of the source.

Experiments:
SHP1 = SHP1 (Homo sapiens, UniProt P29350); assay: Protein phosphatase inhibition assay, SHP1
[1] = Cytotoxicity by CCK-8 method; assay type: cell-based; details: human, H1975 lung adenocarcinoma cells, read-out: Cytotoxicity (IC50) H1975 Cell (after 24 h)
Method: Cytotoxic activity was evaluated using human lung adenocarcinoma cell line H1975 by CCK-8 method. Briefly, each of the test compounds was dissolved in DMSO and further diluted to give final concentrations of 80, 40, 20, 10, 5, 2.5, and 1.25 µg/mL, respectively. H1975 cells (5 × 10^3 cells/plate) were seeded in 96-well plates and treated with compounds at the indicated concentration for 24 h, and then 10 μL CCK-8 reagent was added to each well, and the plates were incubated at 37 °C for another 4 h. Next, the optical density was measured at a wavelength of 450 nm with the Bio-Rad (Hercules, CA, USA) microplate reader. Dose–response curves were generated, and the IC50 values were calculated from the linear portion of log dose–response curves.

TCPTP = target: T1, TCPTP (Homo sapiens, UniProt P17706); assay: Protein phosphatase inhibition assay, TCPTP
T1 sequence (P17706 1-415): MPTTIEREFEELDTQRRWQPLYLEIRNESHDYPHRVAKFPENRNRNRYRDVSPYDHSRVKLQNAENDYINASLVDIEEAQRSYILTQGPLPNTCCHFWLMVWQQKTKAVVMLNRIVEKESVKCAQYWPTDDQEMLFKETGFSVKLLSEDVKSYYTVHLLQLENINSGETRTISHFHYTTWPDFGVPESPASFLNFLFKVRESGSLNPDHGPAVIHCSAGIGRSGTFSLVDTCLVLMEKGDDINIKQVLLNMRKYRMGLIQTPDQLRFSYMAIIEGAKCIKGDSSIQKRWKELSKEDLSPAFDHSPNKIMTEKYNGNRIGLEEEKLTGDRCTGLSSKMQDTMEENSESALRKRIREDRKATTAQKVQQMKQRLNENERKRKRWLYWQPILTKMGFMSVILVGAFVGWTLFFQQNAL

CD45 = target: T2, CD45 (Homo sapiens, UniProt P08575); assay: Protein phosphatase inhibition assay, CD45
T2 sequence (P08575 26-1306): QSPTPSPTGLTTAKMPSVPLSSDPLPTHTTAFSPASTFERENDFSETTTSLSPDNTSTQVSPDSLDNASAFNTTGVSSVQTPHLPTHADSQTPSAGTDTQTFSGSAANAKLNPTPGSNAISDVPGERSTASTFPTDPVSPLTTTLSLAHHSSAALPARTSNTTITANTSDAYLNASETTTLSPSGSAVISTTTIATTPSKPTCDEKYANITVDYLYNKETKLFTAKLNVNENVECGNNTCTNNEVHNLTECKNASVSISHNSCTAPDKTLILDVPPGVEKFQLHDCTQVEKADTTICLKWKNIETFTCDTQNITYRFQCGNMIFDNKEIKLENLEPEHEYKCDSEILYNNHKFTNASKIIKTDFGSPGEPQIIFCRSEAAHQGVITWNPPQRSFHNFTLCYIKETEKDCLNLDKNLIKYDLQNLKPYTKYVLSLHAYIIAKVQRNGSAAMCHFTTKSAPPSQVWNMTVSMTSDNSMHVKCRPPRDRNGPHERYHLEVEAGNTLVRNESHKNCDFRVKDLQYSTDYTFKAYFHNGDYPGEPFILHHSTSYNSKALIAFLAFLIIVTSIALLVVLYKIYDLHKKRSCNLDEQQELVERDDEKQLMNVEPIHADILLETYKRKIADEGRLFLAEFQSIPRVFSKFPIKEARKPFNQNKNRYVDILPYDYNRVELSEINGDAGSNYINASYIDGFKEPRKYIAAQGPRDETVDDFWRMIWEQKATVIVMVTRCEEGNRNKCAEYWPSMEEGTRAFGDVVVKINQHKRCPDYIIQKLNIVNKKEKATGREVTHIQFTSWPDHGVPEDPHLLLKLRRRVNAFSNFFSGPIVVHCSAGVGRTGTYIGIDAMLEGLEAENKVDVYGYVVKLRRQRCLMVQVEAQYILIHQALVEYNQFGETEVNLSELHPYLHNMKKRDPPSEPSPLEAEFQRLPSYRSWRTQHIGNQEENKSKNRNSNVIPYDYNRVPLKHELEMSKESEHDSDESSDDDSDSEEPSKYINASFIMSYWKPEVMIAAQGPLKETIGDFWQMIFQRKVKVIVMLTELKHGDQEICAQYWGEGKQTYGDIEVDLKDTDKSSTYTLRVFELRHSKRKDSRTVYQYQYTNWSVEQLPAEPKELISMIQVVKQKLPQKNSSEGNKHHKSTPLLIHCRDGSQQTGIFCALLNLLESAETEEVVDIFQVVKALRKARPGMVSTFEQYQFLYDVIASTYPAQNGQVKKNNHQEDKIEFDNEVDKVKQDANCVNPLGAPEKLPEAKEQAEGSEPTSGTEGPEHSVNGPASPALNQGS

PTP1B = target: T3, PTP1B (Homo sapiens, UniProt P18031); assay: Protein phosphatase inhibition assay, PTP1B
T3 sequence (P18031 1-435): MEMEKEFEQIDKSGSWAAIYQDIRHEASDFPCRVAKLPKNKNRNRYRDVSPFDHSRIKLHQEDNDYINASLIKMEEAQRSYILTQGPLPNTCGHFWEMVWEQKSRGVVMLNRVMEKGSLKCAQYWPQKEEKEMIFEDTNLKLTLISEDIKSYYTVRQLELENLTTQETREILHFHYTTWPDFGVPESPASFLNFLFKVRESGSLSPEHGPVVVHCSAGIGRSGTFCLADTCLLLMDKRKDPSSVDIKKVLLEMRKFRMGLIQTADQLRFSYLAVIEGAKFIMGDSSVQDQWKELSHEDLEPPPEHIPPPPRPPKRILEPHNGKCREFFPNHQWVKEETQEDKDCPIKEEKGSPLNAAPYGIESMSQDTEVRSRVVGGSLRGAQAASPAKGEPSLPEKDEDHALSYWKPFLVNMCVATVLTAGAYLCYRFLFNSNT

LAR = LAR (Homo sapiens, UniProt P10586); assay: Protein phosphatase inhibition assay, LAR
Escherichia coli = assay: Antibacterial 2-fold dilution assay, E. coli; details: 12 h, read-out: MIC, Escherichia coli
Method: (§1) Antibacterial activities of 1–14 against E. coli, S. aureus and MRSA were evaluated using the 2-fold dilution assay in 96-microwell plates. Briefly, all the indicator bacteria were cultured on Luria−Bertani (LB) agar plates at 37 °C for 12 h, and then a single colony was picked into LB liquid medium and cultivated on a rotary shaker at 37 °C for 12 h. Then, the bacterial suspensions with LB medium were diluted until the difference of the OD600 values between the bacterial suspensions and the medium was 0.01~0.02. […] The 96-well plates were incubated at 37 °C for 12 h. MIC value was determined as the lowest concentration with no visible bacterial growth. Ampicillin was used as the positive control and DMSO as the negative control. All experiments were performed three times.

[2] = test system: methicillin-resistant S. aureus (MRSA); assay: Antibacterial 2-fold dilution assay, MRSA; details: Staphylococcus aureus, 12 h, read-out: MIC, methicillin-resistant S. aureus (MRSA)
Method: as §1

Staphylococcus aureus = assay: Antibacterial 2-fold dilution assay, S. aureus; details: 12 h, read-out: MIC, Staphylococcus aureus
Method: as §1

Sequence of SHP1 (P29350 whole entry): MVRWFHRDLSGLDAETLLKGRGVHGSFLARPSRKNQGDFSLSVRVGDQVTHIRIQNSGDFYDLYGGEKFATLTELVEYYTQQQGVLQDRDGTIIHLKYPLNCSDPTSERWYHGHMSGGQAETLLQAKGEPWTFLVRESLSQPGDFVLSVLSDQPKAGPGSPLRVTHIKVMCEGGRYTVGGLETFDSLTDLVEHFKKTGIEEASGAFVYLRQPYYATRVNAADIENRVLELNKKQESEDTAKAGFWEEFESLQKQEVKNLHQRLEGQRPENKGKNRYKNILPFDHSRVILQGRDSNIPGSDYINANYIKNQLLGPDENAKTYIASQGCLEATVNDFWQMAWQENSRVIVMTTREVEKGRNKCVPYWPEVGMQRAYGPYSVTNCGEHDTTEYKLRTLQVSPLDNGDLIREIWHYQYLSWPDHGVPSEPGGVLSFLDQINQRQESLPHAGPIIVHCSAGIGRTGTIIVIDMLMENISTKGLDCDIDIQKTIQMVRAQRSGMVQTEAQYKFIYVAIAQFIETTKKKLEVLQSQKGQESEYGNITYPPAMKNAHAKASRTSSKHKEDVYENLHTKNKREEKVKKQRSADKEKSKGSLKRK
Sequence of LAR (P10586 30-1907): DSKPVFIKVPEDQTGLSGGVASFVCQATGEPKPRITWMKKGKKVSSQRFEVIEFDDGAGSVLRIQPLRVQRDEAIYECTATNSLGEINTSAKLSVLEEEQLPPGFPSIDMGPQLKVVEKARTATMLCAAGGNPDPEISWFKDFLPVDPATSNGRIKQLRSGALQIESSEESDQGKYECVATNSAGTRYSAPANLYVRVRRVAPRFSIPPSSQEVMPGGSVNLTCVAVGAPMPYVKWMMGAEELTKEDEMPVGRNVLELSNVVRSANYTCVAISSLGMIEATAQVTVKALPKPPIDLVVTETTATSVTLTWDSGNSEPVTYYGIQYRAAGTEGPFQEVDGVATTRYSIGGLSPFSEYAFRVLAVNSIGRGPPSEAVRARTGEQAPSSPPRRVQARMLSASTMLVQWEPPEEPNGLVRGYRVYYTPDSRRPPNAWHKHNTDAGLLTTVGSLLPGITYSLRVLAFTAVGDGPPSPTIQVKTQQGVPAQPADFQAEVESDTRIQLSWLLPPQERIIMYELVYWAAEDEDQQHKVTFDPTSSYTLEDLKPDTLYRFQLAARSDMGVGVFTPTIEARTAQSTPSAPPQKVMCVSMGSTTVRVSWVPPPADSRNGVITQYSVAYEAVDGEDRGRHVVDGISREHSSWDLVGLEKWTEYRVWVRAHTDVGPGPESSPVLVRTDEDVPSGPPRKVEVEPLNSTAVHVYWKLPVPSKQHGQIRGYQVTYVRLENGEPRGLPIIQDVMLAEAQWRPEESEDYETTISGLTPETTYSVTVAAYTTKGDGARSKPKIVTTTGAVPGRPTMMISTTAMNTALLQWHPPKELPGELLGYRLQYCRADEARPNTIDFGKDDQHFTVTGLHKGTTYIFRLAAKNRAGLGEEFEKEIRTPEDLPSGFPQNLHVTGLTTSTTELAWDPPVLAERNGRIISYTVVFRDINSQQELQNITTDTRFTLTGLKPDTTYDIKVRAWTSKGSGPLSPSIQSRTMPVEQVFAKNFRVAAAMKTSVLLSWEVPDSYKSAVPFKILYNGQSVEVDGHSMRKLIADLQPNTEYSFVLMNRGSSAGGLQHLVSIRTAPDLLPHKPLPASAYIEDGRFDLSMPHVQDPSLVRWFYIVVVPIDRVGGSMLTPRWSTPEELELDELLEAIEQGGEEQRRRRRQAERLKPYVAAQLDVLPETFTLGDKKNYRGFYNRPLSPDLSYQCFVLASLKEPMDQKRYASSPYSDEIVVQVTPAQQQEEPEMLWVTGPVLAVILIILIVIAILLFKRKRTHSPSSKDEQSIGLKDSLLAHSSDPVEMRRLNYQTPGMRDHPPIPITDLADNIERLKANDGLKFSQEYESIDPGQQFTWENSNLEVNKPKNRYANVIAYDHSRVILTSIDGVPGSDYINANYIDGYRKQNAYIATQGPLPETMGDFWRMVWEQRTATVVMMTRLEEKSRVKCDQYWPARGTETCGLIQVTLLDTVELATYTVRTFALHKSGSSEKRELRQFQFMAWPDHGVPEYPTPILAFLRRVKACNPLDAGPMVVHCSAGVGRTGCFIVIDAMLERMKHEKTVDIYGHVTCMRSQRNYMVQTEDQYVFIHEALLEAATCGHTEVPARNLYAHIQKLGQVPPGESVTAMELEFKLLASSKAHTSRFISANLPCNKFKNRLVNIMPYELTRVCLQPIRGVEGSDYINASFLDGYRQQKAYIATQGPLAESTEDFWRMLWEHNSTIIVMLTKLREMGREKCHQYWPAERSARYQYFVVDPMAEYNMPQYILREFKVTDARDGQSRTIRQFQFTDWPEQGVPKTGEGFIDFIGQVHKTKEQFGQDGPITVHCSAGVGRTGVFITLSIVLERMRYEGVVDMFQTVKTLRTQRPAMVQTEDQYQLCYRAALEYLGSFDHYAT

Row | Structure (SMILES) | IC50 (SHP1) [µM] | IC50 (TCPTP) [µM] | IC50 (CD45) [µM] | IC50 (PTP1B) [µM] | IC50 (LAR) [µM] | MIC (Escherichia coli) [µg/mL] | MIC [2] [µg/mL] | MIC (Staphylococcus aureus) [µg/mL] | IC50 (CD45; read-out: Inhibitory Effect against Phosphatases (IC50) CD45) [µM] | IC50 at 24 h [1] [µM] | IC50 (SHP1; read-out: Inhibitory Effect against Phosphatases (IC50) SHP1) [µM] | IC50 (TCPTP; read-out: Inhibitory Effect against Phosphatases (IC50) TCPTP) [µM]
1 | COc1cc2ccncc2c(O)c1Cc1c(OC)c(C)c(O)c2cnccc12 [Compound 5, Puniceusine E] | 145 | > 200 | 103 | 200 | > 200 | – | – | – | – | > 80 | – | –
2 | CCC(=O)c1c(C)c(O)c(Cc2c(OC)cc3ccncc3c2O)c(O)c1O [Compound 10, Puniceusine J] | > 200 | > 200 | 30.8 | > 200 | 100 | – | – | – | – | > 80 | – | –
3 | COc1cc2ccncc2c(O)c1Cc1c(O)c(OC)c2c(c1O)C(=O)O[C@H]2[C@@H](C)O [Compound 11, Puniceusine K] | 145 | > 200 | 100 | 190 | > 200 | – | – | – | – | > 80 | – | –
4 | CCc1oc(=O)c(Cc2c(OC)cc3ccncc3c2O)c(O)c1C [Compound 13, Puniceusine M] | 40.3 | > 200 | 11.1 | 37.9 | 32.6 | – | – | – | – | > 80 | – | –
5 | CCCCC(CC)COC(=O)CC[n+]1ccc2cc(OC)c(C)c(O)c2c1 (stereo not drawn) [Compound 14, Puniceusine N] | > 200 | > 200 | 200 | > 200 | > 200 | 100 | 100 | 100 | – | > 80 | – | –
6 | COc1cc2ccncc2c(O)c1Cc1c(O)cc(O)c(OC)c1C(=O)C(C)=O [Compound 8, Puniceusine H] | 100 | > 200 | 49 | 180 | > 200 | – | – | – | – | > 80 | – | –
7 | COc1cc2ccncc2c(O)c1Cc1c(OC)cc2ccncc2c1O [Compound 3, Puniceusine C] | 20.7 | > 200 | 8.4 | 64.5 | 21.9 | – | – | – | – | 71.3 | – | –
8 | [Na+].[Na+].[Na+].[O]=[V]([O-])([O-])[O-] [Na3VO4, reference compound] | – | – | – | – | – | – | – | – | – | – | 4.4 | 2.4
9 | CC(=O)c1ccc(NC2=C(Cl)C(=O)c3ccccc3C2=O)cc1 [AACQ, 2-[(4-acetylphenyl)amino]-3-chloronaphthoquinone, reference compound] | – | – | – | – | – | – | – | – | 0.29 | – | – | –

The next lines start with results.

Row | IC50 (SHP1) [µM] | IC50 (TCPTP) [µM] | IC50 (CD45) [µM] | IC50 (PTP1B) [µM] | IC50 (LAR) [µM] | MIC (Escherichia coli) [µg/mL] | MIC [2] [µg/mL] | MIC (Staphylococcus aureus) [µg/mL] | IC50 (CD45; read-out: Inhibitory Effect against Phosphatases (IC50) CD45) [µM] | Structure (SMILES) | IC50 at 24 h [1] [µM] | IC50 (SHP1; read-out: Inhibitory Effect against Phosphatases (IC50) SHP1) [µM] | IC50 (TCPTP; read-out: Inhibitory Effect against Phosphatases (IC50) TCPTP) [µM]
10 | 130 | > 200 | 5.6 | 150 | – | 100 (≈ 276 µM) | – | – | – | COc1cc2ccncc2c(O)c1Cc1c(OC)cc(O)c2cnccc12 [Compound 4, Puniceusine D] | 11 | – | –
11 | 200 | > 200 | > 200 | > 200 | > 200 | – | – | – | – | COc1cc2ccncc2c(O)c1CC(C)C(=O)O (stereo not drawn) [Compound 6, Puniceusine F] | > 80 | – | –
12 | > 200 | > 200 | > 200 | > 200 | > 200 | – | – | – | – | COc1cc2ccncc2c(O)c1C [Compound 2, 6-methoxy-7-methyl-8-hydroxy-isoquinolin] | > 80 | – | –
13 | 41.8 | 57.7 | 27.2 | 68.8 | > 200 | – | – | – | – | COc1cc2ccncc2c(O)c1Cc1c(O)cc(O)c2c1[C@@H](C)OC2 [Compound 9, Puniceusine I] | > 80 | – | –
14 | > 200 | > 200 | > 200 | > 200 | > 200 | – | – | – | – | COc1cc2ccncc2c2c(C)c(O)c(C)cc12 [Compound 7, Puniceusine G] | > 80 | – | –
15 | 117 | > 200 | 38.5 | 170 | 150 | – | – | – | – | CCc1cc(O)c(Cc2c(OC)cc3ccncc3c2O)c(=O)o1 [Compound 12, Puniceusine L] | > 80 | – | –
16 | 38.3 | 197 | 29.7 | 182 | 100 | – | – | – | – | COc1cc(O)c2cnccc2c1 [Compound 1, 6-methoxy-8-hydroxy-isoquinolin] | 76.2 | – | –
